{"source": "patent US20250163072A1", "about": "“MACROCYCLIC COMPOUNDS FOR THE TREATMENT OF CANCER” (Hoffmann-La Roche Inc., priority 2021, published 2025)", "key": {"NCI-H358 cells": {"system": "NCI-H358 cells", "assay": "Cell viability assay, NCI-H358", "type": "cell-based, human", "settings": "Homo sapiens, NCI-H358, 72 hours, Cell Counting Kit-8, read-out: G12C IC50", "outline": "(§1)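 Cells were plated at 5,000 (NCI-H358) or 2,000 (AGS, SW620) per well and incubated overnight. They were then treated with compound in 0.5% DMSO for 72 h. Viability was read with CCK-8 as OD450 minus OD650 after 2 h, and IC50 came from a 4-parameter sigmoidal fit.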"}, "[1]": {"system": "KRAS G12C in NCI-H358 cells", "assay": "pERK inhibition assay, NCI-H358", "type": "cell-based, human", "settings": "Homo sapiens, 4 hours incubation", "outline": "(§2)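 NCI-H358, AGS and SW620 cells in RPMI-1640/10% FBS were plated overnight, then exposed to compound (0.5% DMSO final) for 4 h. After fixation and permeabilization, phospho-ERK was quantified by in-cell ELISA (HRP secondary, TMB, OD450); IC50 from a 4-parameter sigmoidal fit.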"}, "KRAS G12D in AGS cells": {"system": "KRAS G12D in AGS cells", "assay": "pERK inhibition assay, AGS", "type": "cell-based, human", "settings": "Homo sapiens, 4 hours incubation", "outline": "as §2"}, "KRAS G12C-BRAF complex": {"biological_target": "KRAS G12C-BRAF complex (Homo sapiens (Human), UniProt P01116+P62937, G12C)", "sequence (P01116-2 other isoform, or with tags, fused parts or gaps G12C)": "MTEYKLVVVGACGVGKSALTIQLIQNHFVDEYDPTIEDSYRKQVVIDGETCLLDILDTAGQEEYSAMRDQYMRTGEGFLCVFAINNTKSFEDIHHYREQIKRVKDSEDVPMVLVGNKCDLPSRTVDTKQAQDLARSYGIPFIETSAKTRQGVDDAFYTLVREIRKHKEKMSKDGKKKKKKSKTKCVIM", "sequence (P62937 whole entry)": "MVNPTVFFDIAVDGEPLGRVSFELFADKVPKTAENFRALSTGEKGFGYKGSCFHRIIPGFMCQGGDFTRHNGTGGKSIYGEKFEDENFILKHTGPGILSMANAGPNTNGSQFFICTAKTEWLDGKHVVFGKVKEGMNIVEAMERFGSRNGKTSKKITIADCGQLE", "assay": "KRAS G12C-BRAF NanoBit assay", "type": "cell-based", "settings": "HEK293 cells, SmBit-KRAS G12C and BRAF RBD-LgBit, 3 hours incubation", "experimental": "This assay is to measure the ability of tested compounds in disruption of the KRAS G12C-BRAF complex at the cellular level, we established the NanoBit cellular assay in mammalian HEK293 (ATCC) cells. HEK293 cells were grown and maintained using DMEM medium (Thermo Fisher Scientific) with 10% fetal bovine serum and 1% penicillin/streptomycin. Both KRAS G12C and BRAF RBD were cloned into the NanoBit vectors ([…] vectors system, Promega) with the orientations SmBit-KRAS G12C and BRAF RBD-LgBit, respectively, and co-transfected into HEK293 cells. Cells were then selected with 100 μg/mL Hygromycin B (10687010, Thermo Fisher) and Blasticidin (5 μg/mL) for 4 weeks to get the stable cell pool. On the day of the assay, 75 nL of compound solution was presented in a 384-well assay plate as a 16-point 3-fold dilution starting from a final concentration of 30 μM in DMSO. Then cells were seeded at 10,000 cells/25 μL/well in a 384-well plate. After 3 hours of incubation, 6 μL of volume of Nano-Glo® Live Cell Substrate (Promega) was added into each well. Monitor luminescence using ultra384 model in Envision at 20 minutes. Compounds that facilitate disruption of the KRAS G12C-BRAF RBD complex were identified as those eliciting a decrease of luminescence relative to DMSO control wells."}, "SW620 cells": {"system": "SW620 cells", "assay": "Cell viability assay, SW620", "type": "cell-based, human", "settings": "Homo sapiens, SW-620, SW620, 72 hours, Cell Counting Kit-8, read-out: G12V IC50", "outline": "as §1"}, "KRAS G12V in SW620": {"system": "KRAS G12V in SW620", "assay": "pERK inhibition assay, SW620", "type": "cell-based, human", "settings": "Homo sapiens, SW-620, SW620 cells, 4 hours incubation", "outline": "as §2"}, "[2]": {"assay": "GSH reaction rates (inherent GSH reactivity)", "type": "in vitro ADME", "settings": "1 μM compound, 5 mM GSH, 37° C.", "outline": "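Compounds at 1 μM were incubated at 37° C with or without 5 mM GSH in 100 mM potassium phosphate pH 7.4 for 0-6 h. Samples were quenched with acetonitrile/N-ethylmaleimide and the remaining compound quantified by LC-MS/MS to derive T1/2.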"}}, "note": "pIC50: −log10 of the molar value."}
{"smiles": "CO[C@@H](C)c1ncc(N2CCOCC2)cc1-c1c2c3cc(ccc3n1CC(F)(F)F)-c1csc(n1)C[C@H](NC(=O)[C@H](C(C)C)N(C)C(=O)[C@H]1CCN(C(=O)[C@H](F)Cl)C1)C(=O)N1CCC[C@H](N1)C(=O)OCC(C)(C)C2", "note": "(atropisomer, axis not shown; (M)) [Example 25, (3S)-1-[(2R)-2-chloro-2-fluoro-acetyl]-N-[(1S)-1-[[(7S,13S)-(20M)-20-[2-[(1S)-1-methoxyethyl]-5-morpholino-3-pyridyl]-17,17-dimethyl-8,14-dioxo-21-(2,2,2-trifluoroethyl)-15-oxa-4-thia-9,21,27,28-tetrazapentacyclo[17.5.2.12,5.19,13.022,26]octacosa-1(25),2,5(28),19,22(26),23-hexaen-7-yl]carbamoyl]-2-methyl-propyl]-N-methyl-pyrrolidine-3-carboxamide]", "values": [{"measurement": "pIC50", "setting": "NCI-H358 cells", "value": "> 9.22"}, {"measurement": "pIC50", "setting": "[1]", "value": 9.00}, {"measurement": "pIC50", "setting": "KRAS G12D in AGS cells", "value": 7.89}, {"measurement": "pIC50", "setting": "KRAS G12C-BRAF complex", "value": 7.70}, {"measurement": "pIC50", "setting": "SW620 cells", "value": 8.22}, {"measurement": "pIC50", "setting": "KRAS G12V in SW620", "value": 8.52}, {"measurement": "Remaining at 6 hr in GSH (%)", "setting": "[2]; pH 7.4, 6 hr", "value": 100, "unit": "%"}, {"measurement": "T1/2(hour) in GSH", "setting": "[2]; potassium phosphate buffer pH 7.4", "value": "stable (If % depletion after 6 hour incubation is less than 20%, compounds were reported as stable)"}]}
